In patent publication US12258370B2, “Betulastatin compounds” (Arizona Board of Regents on behalf of Arizona State …, priority 2017, dated 2025):
≈ marks a conversion by molar mass, not a printed value.

Columns and labels:
Type in all cases: cell-based
SF-268 (CNS) = experiment: Sulforhodamine B human cancer cell growth inhibition, SF-268; settings: SF-268 CNS cell line, compounds in DMSO, 48 h; for IC50: Homo sapiens, read-out: Gl50 Growth Inhibition, SF-268
Description: (§1) Cancer Cell Line Procedures. Inhibition of human cancer cell growth was assessed using the standard sulforhodamine B assay of the U.S. National Cancer Institute, as previously described.^15 To begin, cells in a 5% fetal bovine serum/RPMI1640 medium were inoculated in 96-well plates and incubated for 24 h. Next, serial dilutions of the compounds were added. After 48 h, the plates were fixed with trichloroacetic acid, stained with sulforhodamine B, and read with an automated microplate reader.

NCI-H460 (lung) = experiment: Sulforhodamine B human cancer cell growth inhibition, NCI-H460; settings: NCI-H460 lung cell line, compounds in DMSO, 48 h; for IC50: Homo sapiens, read-out: Gl50 Growth Inhibition, NCI-H460
Description: as §1

BXPC-3 (pancreas) = experiment: Sulforhodamine B human cancer cell growth inhibition, BXPC-3; settings: BXPC-3 pancreas cell line, compounds in DMSO, 48 h; for IC50: Homo sapiens, read-out: Gl50 Growth Inhibition, XPC-3
Description: as §1

MCF-7 (breast) = experiment: Sulforhodamine B human cancer cell growth inhibition, MCF-7; settings: compounds in DMSO, 48 h; for Gl50 Growth Inhibition, MCF-7: MCF-7 breast cell line; for IC50: Homo sapiens, MCF7, MCF-7 breast cell line, read-out: Gl50 Growth Inhibition, MCF-7
Description: as §1

DU-145 (prostate) = experiment: Sulforhodamine B human cancer cell growth inhibition, DU-145; settings: DU-145 prostate cell line, compounds in DMSO, 48 h; for IC50: Homo sapiens, read-out: Gl50 Growth Inhibition, DU-145
Description: as §1

KM20L2 (colon) = experiment: Sulforhodamine B human cancer cell growth inhibition, KM20L2; settings: compounds in DMSO, 48 h; for Gl50 Growth Inhibition, KM20L2: KM20L2 colon cell line; for IC50: Homo sapiens, KM-20L2, KM20L2 colon cell line, read-out: Gl50 Growth Inhibition, KM20L2
Description: as §1

| Compound | Gl50 Growth Inhibition, SF-268 (SF-268 (CNS)) [µg/mL] | Gl50 Growth Inhibition, NCI-H460 (NCI-H460 (lung)) [µg/mL] | Gl50 Growth Inhibition, XPC-3 (BXPC-3 (pancreas)) [µg/mL] | Gl50 Growth Inhibition, MCF-7 (MCF-7 (breast)) [µg/mL] | Gl50 Growth Inhibition, DU-145 (DU-145 (prostate)) [µg/mL] | Gl50 Growth Inhibition, KM20L2 (KM20L2 (colon)) [µg/mL] | IC50 (SF-268 (CNS)) [µg/mL] | IC50 (NCI-H460 (lung)) [µg/mL] | IC50 (BXPC-3 (pancreas)) [µg/mL] | IC50 (MCF-7 (breast)) [µg/mL] | IC50 (DU-145 (prostate)) [µg/mL] | IC50 (KM20L2 (colon)) [µg/mL] |
| --- | --- | --- | --- | --- | --- | --- | --- | --- | --- | --- | --- | --- |
| 3-O-Acetyl-28-amido-allobetulin-28-N-1′-ethyldiamine-N-2′-Dap-Dil-Val-Dov [Compound 18a] | 1.3 | 5.1 | 3.8 | 3.6 | 0.39 | 3.1 | – | – | – | – | – | – |
| C=C(C)[C@@H]1CC[C@]2(COC(C)=O)CC[C@]3(C)[C@H](CC[C@@H]4[C@@]5(C)CCC(N)C(C)(C)[C@@H]5CC[C@]43C)[C@@H]12 (single isomer, unassigned) [Compound 9a, 3-α/β-Amino-28-O-acetyl-betulin] | 1.2 | 6.0 | >10 | 2.1 | 1.3 | 3.0 | – | – | – | – | – | – |
| C=C(C)[C@@H]1CC[C@]2(CO)CC[C@]3(C)[C@H](CC[C@@H]4[C@@]5(C)CC[C@H](O)C(C)(C)[C@@H]5CC[C@]43C)[C@@H]12 [Betulin, betulin, reference compound] | – | – | – | – | – | – | > 10 | 7.4 (≈ 16.7 µM) | 9.3 (≈ 21 µM) | > 10 | > 10 | > 10 |
| C=C(C)[C@@H]1CC[C@]2(C=O)CC[C@]3(C)[C@H](CC[C@@H]4[C@@]5(C)CC[C@H](OC(C)=O)C(C)(C)[C@@H]5CC[C@]43C)[C@@H]12 [Compound 1, 3-O-Acetyl-28-betulinal] | >10 | >10 | >10 | >10 | >10 | >10 | – | – | – | – | – | – |
| C=C(C)[C@@H]1CC[C@]2(/C=N/O)CC[C@]3(C)[C@H](CC[C@@H]4[C@@]5(C)CC[C@H](OC(C)=O)C(C)(C)[C@@H]5CC[C@]43C)[C@@H]12 [Compound 2, 3-O-Acetyl-28-oxime-betulin] | 13.2 | 4.1 | 15.5 | 4.5 | >10 | 5.1 | – | – | – | – | – | – |
| C=C(C)[C@@H]1CC[C@]2(CN)CC[C@]3(C)C(CCC4[C@@]5(C)CC[C@H](OC(C)=O)C(C)(C)C5CC[C@]43C)C12 (stereo partly drawn) [Compound 3, 3-O-Acetyl-28-aminobetulin] | – | – | – | – | – | – | 1.8 (≈ 3.72 µM) | 1.9 (≈ 3.93 µM) | 1.9 (≈ 3.93 µM) | 1.8 (≈ 3.72 µM) | 1.8 (≈ 3.72 µM) | 1.9 (≈ 3.93 µM) |
| C=C(C)[C@@H]1CC[C@]2(CNC(=O)[C@H](C)[C@@H](OC)C3CCCN3C(=O)OC(C)(C)C)CC[C@]3(C)C(CCC4[C@@]5(C)CC[C@H](OC(C)=O)C(C)(C)C5CC[C@]43C)C12 (stereo partly drawn) [Compound 5, 3-O-Acetyl-28-amino-N-(Boc-dap)-betulin] | – | – | – | – | – | – | > 10 | > 10 | > 10 | > 10 | > 10 | > 10 |
| C=C(C)[C@@H]1CC[C@]2(CNC(=O)[C@H](C)[C@@H](OC)[C@@H]3CCCN3C(=O)C[C@@H](OC)[C@H]([C@@H](C)CC)N(C)C(=O)[C@@H](NC(=O)[C@H](C(C)C)N(C)C)C(C)C)CC[C@]3(C)[C@H](CC[C@@H]4[C@@]5(C)CC[C@H](OC(C)=O)C(C)(C)[C@@H]5CC[C@]43C)[C@@H]12 [Compound 7a, 3-O-Acetyl-28-amino-N-(Dap-Dil-Val-Dov)-betulin] | 2.6 | 4.2 | 4.1 | 3.6 | 3.7 | 2.4 | – | – | – | – | – | – |
| C=C(C)[C@@H]1CC[C@]2(COC(C)=O)CC[C@]3(C)C(CCC4[C@@]5(C)CC/C(=N/O)C(C)(C)[C@@H]5CC[C@]43C)[C@@H]12 (stereo partly drawn) [Compound 8, 3-Oxime-28-O-acetyl-betulin] | – | – | – | – | – | – | > 10 | > 10 | 10.4 (≈ 20.9 µM) | 5.9 (≈ 11.9 µM) | > 10 | 14.1 (≈ 28.3 µM) |
| C=C(C)[C@@H]1CC[C@]2(COC(C)=O)CC[C@]3(C)C(CCC4[C@@]5(C)CC[C@H](NC(=O)[C@H](C)[C@@H](OC)C6CCCN6C(=O)OC(C)(C)C)C(C)(C)[C@@H]5CC[C@]43C)[C@@H]12 (stereo partly drawn) [Compound 10, 3-β-Amino-N-(Boc-Dap)-28-O-acetyl-betulin] | – | – | – | – | – | – | > 10 | > 10 | > 10 | > 10 | > 10 | > 10 |
| C=C(C)[C@@H]1CC[C@]2(COC(C)=O)CC[C@]3(C)[C@H](CC[C@@H]4[C@@]5(C)CC[C@H](NC(=O)[C@H](C)[C@@H](OC)[C@@H]6CCCN6C(=O)C[C@@H](OC)[C@H]([C@@H](C)CC)N(C)C(=O)[C@@H](NC(=O)[C@H](C(C)C)N(C)C)C(C)C)C(C)(C)[C@@H]5CC[C@]43C)[C@@H]12 [Compound 11a, 3β-Amino-N-(Dap-Dil-Val-Dov)-28-O-acetyl-betulin] | 3.8 | >10 | 10.0 | 4.1 | 2.5 | 7.0 | – | – | – | – | – | – |
| C=C(CBr)[C@@H]1CC[C@]2(COC(C)=O)CC[C@]3(C)[C@H](CC[C@@H]4[C@@]5(C)CC[C@H](OC(C)=O)C(C)(C)[C@@H]5CC[C@]43C)[C@@H]12 [Compound 12, 3,28-Di-O-acetyl-30-bromo-betulin] | >10 | >10 | >10 | >10 | >10 | >10 | – | – | – | – | – | – |
| C=C(CN=[N+]=[N-])[C@@H]1CC[C@]2(COC(C)=O)CC[C@]3(C)C(CCC4[C@@]5(C)CC[C@H](OC(C)=O)C(C)(C)[C@@H]5CC[C@]43C)[C@@H]12 (stereo partly drawn) [Compound 13, 3,28-Di-O-acetyl-30-azido-betulin] | – | – | – | – | – | – | > 10 | > 10 | > 10 | > 10 | > 10 | > 10 |
| C=C(CN)[C@@H]1CC[C@]2(CO)CC[C@]3(C)[C@H](CC[C@@H]4[C@@]5(C)CC[C@H](O)C(C)(C)[C@@H]5CC[C@]43C)[C@@H]12 [Compound 14, 30-Amino-betulin] | 4.2 | 4.0 | 3.0 | 3.1 | 2.1 | 2.9 | – | – | – | – | – | – |
| C=C(CNC(=O)[C@H](C)[C@@H](OC)[C@@H]1CCCN1C(=O)OC(C)(C)C)[C@@H]1CC[C@]2(CO)CC[C@]3(C)[C@H](CC[C@@H]4[C@@]5(C)CC[C@H](O)C(C)(C)[C@@H]5CC[C@]43C)[C@@H]12 [Compound 15a, 30-N-(Boc-dap)-betulin] | >10 | >10 | >10 | 9.0 | >10 | >10 | – | – | – | – | – | – |
| C=C(CNC(=O)[C@H](C)[C@@H](OC)[C@@H]1CCCN1C(=O)OC(C)(C)C)[C@@H]1CC[C@]2(COC(C)=O)CC[C@]3(C)[C@H](CC[C@@H]4[C@@]5(C)CC[C@H](OC(C)=O)C(C)(C)[C@@H]5CC[C@]43C)[C@@H]12 [Compound 15b, 30-N-(Boc-dap)-3, 28-di-O-acetoxy-betulin] | 5.9 | >10 | >10 | >10 | >10 | 7.0 | – | – | – | – | – | – |
| C=C(CNC(=O)[C@H](C)[C@@H](OC)[C@@H]1CCCN1C(=O)C[C@@H](OC)[C@H]([C@@H](C)CC)N(C)C(=O)[C@@H](NC(=O)[C@H](C(C)C)N(C)C)C(C)C)[C@@H]1CC[C@]2(COC(C)=O)CC[C@]3(C)[C@H](CC[C@@H]4[C@@]5(C)CC[C@H](OC(C)=O)C(C)(C)[C@@H]5CC[C@]43C)[C@@H]12 [Compound 16a, 30-N-(Dap-Dil-Val-Dov)-3,28-di-O-acetoxy-betulin] | 4.0 | >10 | 8.0 | 6.3 | 3.0 | 4.0 | – | – | – | – | – | – |
